Measurements: PMC5486078, “Molecular Cloning and Functional Characterization of a Hexokinase from the Oriental River Prawn Macrobrachium nipponense in Response to Hypoxia” (International Journal of Molecular Sciences, 2017)
Like-named read-outs stand apart in the source and are kept apart here. Blank lines part the entries; values can stand above or below the molecule they belong to.

Key:
[1] = target: T1, rMnHK (recombinant M. nipponense hexokinase) (Macrobrachium nipponense, UniProt A0A220NLA7); assay: enzyme inhibition, Lineweaver-Burk plot; assay type: biochemical
T1 construct: pET-28a, His tag, E. coli BL21 (DE3); about 70 kDa on SDS-PAGE
T1 sequence (A0A220NLA7 1-449): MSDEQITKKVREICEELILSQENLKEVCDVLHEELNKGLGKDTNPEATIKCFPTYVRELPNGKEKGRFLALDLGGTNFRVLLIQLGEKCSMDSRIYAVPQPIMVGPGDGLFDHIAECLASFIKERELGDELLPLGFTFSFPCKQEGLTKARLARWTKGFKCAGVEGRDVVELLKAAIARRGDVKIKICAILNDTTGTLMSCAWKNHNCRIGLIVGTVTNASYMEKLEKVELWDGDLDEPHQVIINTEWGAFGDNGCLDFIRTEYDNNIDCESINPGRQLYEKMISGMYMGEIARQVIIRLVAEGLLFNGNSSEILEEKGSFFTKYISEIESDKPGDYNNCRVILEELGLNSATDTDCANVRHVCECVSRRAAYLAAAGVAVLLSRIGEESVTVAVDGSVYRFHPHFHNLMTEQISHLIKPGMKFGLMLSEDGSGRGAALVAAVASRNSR
Excerpt: enzyme inhibition, Lineweaver-Burk plot on rMnHK (recombinant M. nipponense hexokinase)

[2] = substrate: Nc1ncnc2c1ncn2[C@@H]1O[C@H](COP(=O)(O)OP(=O)(O)OP(=O)(O)O)[C@@H](O)[C@H]1O; assay: steady-state kinetics, Michaelis-Menten / Lineweaver-Burk plot; assay type: biochemical, Macrobrachium nipponense; conditions: co-substrate hexose; assay pH and temperature not stated

Ki ([1]; read-out: Inhibitor Studies (Ki) (mM) / PPi): 0.011 mM
Molecule: O=P(O)(O)OP(=O)(O)O [PPi]

Ki ([1]; read-out: Inhibitor Studies (Ki) (mM) / ADP): 0.76 mM
Molecule: Nc1ncnc2c1ncn2[C@@H]1O[C@H](COP(=O)(O)OP(=O)(O)O)[C@@H](O)[C@H]1O [ADP]

B1: rMnHK (recombinant M. nipponense hexokinase) (Macrobrachium nipponense) (protein)
chain: T1 sequence (A0A220NLA7 1-449)
notes: pET-28a, His tag, E. coli BL21 (DE3); about 70 kDa on SDS-PAGE
Km [2]: 0.88 ± 0.6 mM
